One series concerns HEp-2 cells. Put plainly: Trypan blue exclusion cell viability. The following applies: 24-hour treatment. The class given is cell-based. The method, then: In order to assess whether the compounds are producing any toxicity that can led to the cell deaths, we evaluated the cell viability by the trypan blue exclusion method. As long-term inhibition of RACK1 expression has been reported to cell cycle arrest, we limited our experimental treatments to 24 h and evaluated the cell viability of almost full confluent cells after 24 h of compound treatment.
In table 2, the viability of cells was measured with Trypan blue exclusion assay in a Cellometer (Nexcelom, Lawrence, MA). The percentage survival of the compound treated cells was evaluated along with the DMSO treated cells. The values represent the mean f SE of three separate well based replicates.

For a further series, the system named is HSV-1 strain 17. Put plainly: Plaque formation unit (pfu) assay in HEp-2 cells.
For series [1], the system named is RACK1A Y248 phosphorylation. Put plainly: Immunoblot of ABA-induced RACK1A Y248 phosphorylation in seedlings. The class given is cell-based, Arabidopsis. Particulars: 10 μM ABA, 12 hours. In general terms: A western blot detects proteins with antibodies after separation by electrophoresis.
The test system of series [2] is HSV-1 proteins (ICP0, ICP8, gD). Put plainly: Western blot of HSV-1 proteins in pre-treated HEp-2 cells. Format: cell-based. Particulars: 100 μM, 24 hours pre-treatment, 24 h post infection. The method, then: (§1) Panel A of FIG. 8 depicts time and concentration dependent virus protein expression to deduce an optimum drug treatment regimen. […] Tubulin expression was used as the loading control for the blots.
(§2) Proteins were separated by SDS-PAGE (25 μg loaded in each lane), transferred to nitrocellulose membranes (Amersham Inc., Piscataway, NJ, USA), and blocked with 5% nonfat milk for 60 min at room temperature. Membranes were incubated overnight at 4° C. with primary antibody, followed by incubation with a horseradish peroxidase-coupled secondary antibody and detection with enhanced chemiluminescence (Pierce, Rockford, IL, USA), according to standard methods. Membranes were stripped with stripping buffer (100 mM 2-mercaptoethanol, 2% SDS, 62.5 mM Tris-HCl, pH 6.8), washed with PBS-0.1% Tween-20, and used to detect additional proteins. For Arabidopsis lysates one-week old seedlings were treated with 10 uM of ABA in the presence/absence of the inhibitor compounds for 12 hours in a growth chamber (overnight) at 22° C. mostly in the dark. Lysates were isolated in lysis buffer (Cell Signaling, Danvers, MA) supplemented with plant protease inhibitor (Sigma-Aldrich), phosphatase inhibitor cocktail A and B (Santa Cruz Biotechnology, Dallas, TX), and N-Ethylamaleimide (Sigma-Aldrich, St. Louis, MO). […]

Another series has as its target T1, RACK1 (Homo sapiens, UniProt P63244).
T1 construct: endogenous in cells; host or cells: HEp-2 cells (ATCC), infected with HSV-1
Put plainly: Western blot of RACK1 in pre-treated, HSV-1 infected HEp-2 cells. The class given is cell-based. Particulars: 100 μM, 24 hours pre-treatment, 24 h post infection. On the procedure: as §1, §2

The subject of the next series is RACK1 protein expression. The experiment in a line: Immunoblot of RACK1 expression under salt stress.

Two compounds from US12678425B2, “Methods for treating against viruses” (Howard University, priority 2019, dated 2026) can be followed below.

Method for HSV-1 strain 17: The viral plaque assay was performed as previously described (Tang et al. “Determination of minimum herpes simplex virus type 1 components necessary to localize transcriptionally active DNA to ND10,” J. Virol. 2003; 77:5821-28), with slight modifications. The HSV-1 strain 17 was diluted serially in a volume of 1 mL. Then 300 ul of the virus was added onto confluent HEp-2 cell monolayers in 12-well plates; each dilution had 3 wells. After adsorption for 2 h, the medium was removed and the cells were washed twice with serum-free DMEM and overlaid with phenol-free DMEM containing 5% FCS, 0.5% low-melting point agarose (GIBCO), and 1% penicillin-streptomycin. The cells were incubated at 370 C for 48 hours. Neutral red was added on the agarose to stain the live cells. The plaques were counted and reported as pfu per mL. Mean pfu was determined after averaging the number of pfu from different dilutions.
From the text for RACK1 protein expression: The abundant leaf protein Rubisco large subunit (RbcL) was used as a loading control for the blot.
As the antibody cross-reacts with all three RACK1 isoforms in Arabidopsis, we used the double knockout (rack1ab) as a negative control on the blot (triple mutant is lethal at the early seedling stage). The large subunit of the abundant leaf protein rubisco (RbcL) was used as loading control for this blot.

On to `COc1ccc(-c2nnc(SCC(=O)O)n2N)cc1` [SD-29-12], for which the “HEp-2 Cell viability, Mean (percentage survival)” value in the series on HEp-2 cells (10 μM) amounted to 92.7%; in the series with HEp-2 cells (100 μM), 97.7%. Also, the “Plaque formation unit (pfu)” value with HSV-1 strain 17 (0 hpl) is on record as 0 ± 0 PFU/mL; with HSV-1 strain 17 (6 hpl), 3.8 ± 0.07 × 10^2 PFU/mL; in the series with HSV-1 strain 17 (12 hpl), 3.6 ± 0.04 × 10^3 PFU/mL; in the series with HSV-1 strain 17 (24 hpl), 2.6 ± 0.03 × 10^6 PFU/mL.

As for `Nn1c(S)nnc1-c1ccc(F)cc1` [SD-29], the figures for the “HEp-2 Cell viability, Mean (percentage survival)” value in the series on HEp-2 cells (10 μM) and in the series on HEp-2 cells (100 μM) were 94.0% and 92.7%, respectively. For the same compound, the “ABA-induced RACK1A Y248 phosphorylation” value in series [1] was “prevented the ABA-induced Y248 phosphorylation”. Besides, in series [2], the “viral protein levels (ICP0, ICP8, gD)” value is given as “lower than that of DMSO- or SD-29-12-treated HEp-2 cells”. Moreover, the “production of RACK1” value at RACK1 was “reduced the production of RACK1”. The “Plaque formation unit (pfu)” value in the series with HSV-1 strain 17 (0 hpl) and with HSV-1 strain 17 (6 hpl) was 0 ± 0 PFU/mL throughout. The “RACK1 protein expression under salt stress” value with RACK1 protein expression is “inhibited RACK1 protein expression”.
